According to patent publication US10351575B2, “Bicyclic urea, thiourea, guanidine and cyanoguanidine compounds useful for the treatment of pain” (Array BioPharma Inc., priority 2012, dated 2019):

Tests used:
Test in all cases: KinaseProfiler off-target kinase profiling
Assay type in all cases: biochemical
Settings in all cases: 10 μM, ATP near Km
Plk3 = Plk3 (Homo sapiens (Human), UniProt Q9H4B4)
How it was run: (§1)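 Compounds were screened at 10 μM in duplicate, with ATP near the Km of each individual kinase. Activity is given as percent of control (POC), averaged over both replicates.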

MST2 = MST2 (Homo sapiens (Human), UniProt Q13188)
How it was run: as §1

IRAK1 = IRAK1 (Homo sapiens (Human), UniProt P51617)
How it was run: as §1

JNK1alpha1 = JNK1alpha1 (Homo sapiens (Human), UniProt P45983)
How it was run: as §1

STK33 = STK33 (Homo sapiens (Human), UniProt Q9BYT3)
How it was run: as §1

ERK1 = ERK1 (Homo sapiens (Human), UniProt P27361)
How it was run: as §1

Tie2 = Tie2 (Homo sapiens (Human), UniProt Q02763)
How it was run: as §1

Ret = Ret (Homo sapiens (Human), UniProt P07949)
How it was run: as §1

TBK1 = TBK1 (Homo sapiens (Human), UniProt Q9UHD2)
How it was run: as §1

PTK6 = PTK6 (Homo sapiens (Human), UniProt Q13882)
How it was run: as §1

PKD2 = PKD2 (Homo sapiens (Human), UniProt Q9BZL6)
How it was run: as §1

MSSK1 = MSSK1 (Homo sapiens (Human), UniProt Q9UPE1)
How it was run: as §1

CAMK1d = CAMK1d (Homo sapiens (Human), UniProt Q8IU85)
How it was run: as §1

Abl-P = Abl-P (Homo sapiens (Human), UniProt P00519)
How it was run: as §1

FGFR3 = FGFR3 (Homo sapiens (Human), UniProt P22607)
How it was run: as §1

TSSK2 = TSSK2 (Homo sapiens (Human), UniProt Q96PF2)
How it was run: as §1

RIPK2 = RIPK2 (Homo sapiens (Human), UniProt O43353)
How it was run: as §1

DCAMKL2 = DCAMKL2 (Homo sapiens (Human), UniProt Q8N568)
How it was run: as §1

EphA5 = EphA5 (Homo sapiens (Human), UniProt P54756)
How it was run: as §1

MARK1 = MARK1 (Homo sapiens (Human), UniProt Q9P0L2)
How it was run: as §1

FGFR2 = FGFR2 (Homo sapiens (Human), UniProt P21802)
How it was run: as §1

DAPK3 = DAPK3 (Homo sapiens (Human), UniProt O43293)
How it was run: as §1

PKCeta = PKCeta (Homo sapiens (Human), UniProt P24723)
How it was run: as §1

GRK5 = GRK5 (Homo sapiens (Human), UniProt P34947)
How it was run: as §1

CDK6/cyclinD3 = CDK6/cyclinD3 (Homo sapiens (Human), UniProt Q00534)
How it was run: as §1

CDK2/cyclinE = CDK2/cyclinE (Homo sapiens (Human), UniProt P24941)
How it was run: as §1

TLK2 = TLK2 (Homo sapiens (Human), UniProt Q86UE8)
How it was run: as §1

AKT1 = AKT1 (Homo sapiens (Human), UniProt P31749)
How it was run: as §1

MELK = MELK (Homo sapiens (Human), UniProt Q14680)
How it was run: as §1

CK1gamma2 = CK1gamma2 (Homo sapiens (Human), UniProt P78368)
How it was run: as §1

NEK3 = NEK3 (Homo sapiens (Human), UniProt P51956)
How it was run: as §1

GSK3alpha = GSK3alpha (Homo sapiens (Human), UniProt P49840)
How it was run: as §1

PAK4 = PAK4 (Homo sapiens (Human), UniProt O96013)
How it was run: as §1

Ron = Ron (Homo sapiens (Human), UniProt Q04912)
How it was run: as §1

Pim-3 = Pim-3 (Homo sapiens (Human), UniProt Q86V86)
How it was run: as §1

ULK2 = ULK2 (Homo sapiens (Human), UniProt Q8IYT8)
How it was run: as §1

CK1gamma1 = CK1gamma1 (Homo sapiens (Human), UniProt Q9HCP0)
How it was run: as §1

EphA2 = EphA2 (Homo sapiens (Human), UniProt P29317)
How it was run: as §1

MYLK = MYLK (Homo sapiens (Human), UniProt Q15746)
How it was run: as §1

Sequence of GSK3alpha (P49840 whole entry): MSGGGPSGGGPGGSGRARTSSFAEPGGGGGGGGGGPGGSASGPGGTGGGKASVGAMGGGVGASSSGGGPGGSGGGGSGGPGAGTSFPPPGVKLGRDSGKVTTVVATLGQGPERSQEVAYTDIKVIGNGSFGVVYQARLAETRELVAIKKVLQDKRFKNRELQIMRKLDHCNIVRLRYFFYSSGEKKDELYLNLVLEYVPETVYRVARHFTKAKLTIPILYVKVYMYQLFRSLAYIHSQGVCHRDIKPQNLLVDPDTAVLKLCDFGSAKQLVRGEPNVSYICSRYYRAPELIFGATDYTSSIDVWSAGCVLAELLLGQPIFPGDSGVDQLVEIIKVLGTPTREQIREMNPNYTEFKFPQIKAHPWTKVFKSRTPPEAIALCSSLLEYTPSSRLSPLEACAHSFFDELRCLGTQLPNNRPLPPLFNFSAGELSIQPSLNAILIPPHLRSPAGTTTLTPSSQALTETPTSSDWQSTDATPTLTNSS
Sequence of TSSK2 (Q96PF2 whole entry): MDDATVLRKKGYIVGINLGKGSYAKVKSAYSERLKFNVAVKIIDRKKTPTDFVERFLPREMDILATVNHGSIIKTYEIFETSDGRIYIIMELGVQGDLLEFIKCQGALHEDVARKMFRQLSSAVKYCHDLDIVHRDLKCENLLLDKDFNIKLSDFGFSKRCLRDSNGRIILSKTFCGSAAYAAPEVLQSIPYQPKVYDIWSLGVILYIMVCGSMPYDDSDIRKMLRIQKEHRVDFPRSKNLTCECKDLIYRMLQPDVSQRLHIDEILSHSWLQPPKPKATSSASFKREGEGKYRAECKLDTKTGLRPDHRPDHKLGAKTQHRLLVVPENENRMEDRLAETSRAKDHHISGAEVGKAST
Sequence of NEK3 (P51956 whole entry): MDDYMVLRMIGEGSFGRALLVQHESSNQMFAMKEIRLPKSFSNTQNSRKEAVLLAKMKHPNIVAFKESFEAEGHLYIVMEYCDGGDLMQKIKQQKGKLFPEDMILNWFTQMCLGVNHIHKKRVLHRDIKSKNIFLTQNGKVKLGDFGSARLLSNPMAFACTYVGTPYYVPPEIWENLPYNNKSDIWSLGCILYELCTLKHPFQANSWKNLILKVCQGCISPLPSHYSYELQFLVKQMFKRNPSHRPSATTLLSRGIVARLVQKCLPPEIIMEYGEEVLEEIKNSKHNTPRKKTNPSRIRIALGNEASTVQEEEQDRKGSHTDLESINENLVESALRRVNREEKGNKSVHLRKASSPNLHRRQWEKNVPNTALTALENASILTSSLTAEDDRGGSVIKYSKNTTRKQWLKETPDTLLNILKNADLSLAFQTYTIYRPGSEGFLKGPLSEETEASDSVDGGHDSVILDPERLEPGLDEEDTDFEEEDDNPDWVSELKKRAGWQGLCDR
Sequence of PTK6 (Q13882 whole entry): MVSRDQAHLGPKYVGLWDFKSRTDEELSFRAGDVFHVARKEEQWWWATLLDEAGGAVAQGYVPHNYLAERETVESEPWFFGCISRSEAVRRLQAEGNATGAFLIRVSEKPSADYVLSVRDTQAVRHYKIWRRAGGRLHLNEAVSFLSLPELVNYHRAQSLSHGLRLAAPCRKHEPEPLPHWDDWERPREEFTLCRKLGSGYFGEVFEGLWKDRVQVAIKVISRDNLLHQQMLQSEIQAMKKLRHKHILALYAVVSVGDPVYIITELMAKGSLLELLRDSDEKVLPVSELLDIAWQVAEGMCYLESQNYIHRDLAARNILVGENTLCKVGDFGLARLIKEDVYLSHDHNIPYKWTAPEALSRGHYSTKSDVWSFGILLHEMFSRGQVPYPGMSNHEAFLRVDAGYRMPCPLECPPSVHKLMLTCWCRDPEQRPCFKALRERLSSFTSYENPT
Sequence of MSSK1 (Q9UPE1 whole entry): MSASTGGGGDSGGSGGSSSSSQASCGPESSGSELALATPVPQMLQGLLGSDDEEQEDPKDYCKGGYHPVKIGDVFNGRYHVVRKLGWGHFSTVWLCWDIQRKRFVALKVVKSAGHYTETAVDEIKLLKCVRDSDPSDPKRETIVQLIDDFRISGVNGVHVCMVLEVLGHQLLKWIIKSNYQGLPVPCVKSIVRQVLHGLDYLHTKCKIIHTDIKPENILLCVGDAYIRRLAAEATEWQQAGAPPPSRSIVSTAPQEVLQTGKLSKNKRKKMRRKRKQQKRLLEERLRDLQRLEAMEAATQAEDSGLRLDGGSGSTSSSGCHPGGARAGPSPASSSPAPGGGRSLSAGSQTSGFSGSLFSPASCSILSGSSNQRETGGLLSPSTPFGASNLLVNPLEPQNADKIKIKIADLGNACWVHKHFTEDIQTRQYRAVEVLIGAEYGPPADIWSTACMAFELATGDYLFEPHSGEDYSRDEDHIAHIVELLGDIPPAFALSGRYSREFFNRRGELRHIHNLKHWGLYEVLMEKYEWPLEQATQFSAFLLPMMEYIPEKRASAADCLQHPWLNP
Sequence of TLK2 (Q86UE8 whole entry): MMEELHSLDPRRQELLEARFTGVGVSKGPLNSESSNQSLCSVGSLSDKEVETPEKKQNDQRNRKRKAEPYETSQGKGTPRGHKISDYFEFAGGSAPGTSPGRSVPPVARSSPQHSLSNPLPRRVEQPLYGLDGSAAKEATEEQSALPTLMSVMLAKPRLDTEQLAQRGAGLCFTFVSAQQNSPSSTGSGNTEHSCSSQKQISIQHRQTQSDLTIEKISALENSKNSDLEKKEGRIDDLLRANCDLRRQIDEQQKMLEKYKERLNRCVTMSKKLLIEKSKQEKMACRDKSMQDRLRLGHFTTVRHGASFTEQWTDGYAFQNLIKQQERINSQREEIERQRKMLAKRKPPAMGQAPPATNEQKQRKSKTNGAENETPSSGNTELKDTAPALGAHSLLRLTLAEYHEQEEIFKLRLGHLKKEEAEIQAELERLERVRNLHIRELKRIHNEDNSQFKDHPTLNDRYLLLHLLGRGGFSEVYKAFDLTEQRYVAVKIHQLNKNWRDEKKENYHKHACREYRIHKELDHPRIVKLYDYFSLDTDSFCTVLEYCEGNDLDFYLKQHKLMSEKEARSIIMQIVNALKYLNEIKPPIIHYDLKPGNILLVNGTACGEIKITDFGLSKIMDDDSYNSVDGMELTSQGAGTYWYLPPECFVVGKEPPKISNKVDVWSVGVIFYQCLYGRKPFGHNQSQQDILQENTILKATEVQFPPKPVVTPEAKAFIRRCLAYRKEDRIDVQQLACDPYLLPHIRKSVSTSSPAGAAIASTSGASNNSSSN
Sequence of MELK (Q14680 whole entry): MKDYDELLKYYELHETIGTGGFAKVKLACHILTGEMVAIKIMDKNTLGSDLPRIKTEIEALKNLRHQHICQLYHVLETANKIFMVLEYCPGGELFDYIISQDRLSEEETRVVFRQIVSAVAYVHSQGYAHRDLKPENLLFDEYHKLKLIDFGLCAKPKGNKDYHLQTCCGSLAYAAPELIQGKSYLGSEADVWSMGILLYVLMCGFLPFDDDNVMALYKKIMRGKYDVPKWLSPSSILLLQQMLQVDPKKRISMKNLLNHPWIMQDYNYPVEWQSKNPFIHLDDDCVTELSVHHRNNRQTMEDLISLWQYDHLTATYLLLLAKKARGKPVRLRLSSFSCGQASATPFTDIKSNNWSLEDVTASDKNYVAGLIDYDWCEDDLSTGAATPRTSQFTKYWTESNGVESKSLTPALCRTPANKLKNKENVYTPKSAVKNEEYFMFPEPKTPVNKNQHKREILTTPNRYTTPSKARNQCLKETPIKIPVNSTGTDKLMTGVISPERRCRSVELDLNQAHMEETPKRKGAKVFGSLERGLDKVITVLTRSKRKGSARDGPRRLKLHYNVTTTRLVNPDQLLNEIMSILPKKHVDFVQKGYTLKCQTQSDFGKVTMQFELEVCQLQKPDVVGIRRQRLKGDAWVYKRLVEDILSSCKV
Sequence of PKCeta (P24723 whole entry): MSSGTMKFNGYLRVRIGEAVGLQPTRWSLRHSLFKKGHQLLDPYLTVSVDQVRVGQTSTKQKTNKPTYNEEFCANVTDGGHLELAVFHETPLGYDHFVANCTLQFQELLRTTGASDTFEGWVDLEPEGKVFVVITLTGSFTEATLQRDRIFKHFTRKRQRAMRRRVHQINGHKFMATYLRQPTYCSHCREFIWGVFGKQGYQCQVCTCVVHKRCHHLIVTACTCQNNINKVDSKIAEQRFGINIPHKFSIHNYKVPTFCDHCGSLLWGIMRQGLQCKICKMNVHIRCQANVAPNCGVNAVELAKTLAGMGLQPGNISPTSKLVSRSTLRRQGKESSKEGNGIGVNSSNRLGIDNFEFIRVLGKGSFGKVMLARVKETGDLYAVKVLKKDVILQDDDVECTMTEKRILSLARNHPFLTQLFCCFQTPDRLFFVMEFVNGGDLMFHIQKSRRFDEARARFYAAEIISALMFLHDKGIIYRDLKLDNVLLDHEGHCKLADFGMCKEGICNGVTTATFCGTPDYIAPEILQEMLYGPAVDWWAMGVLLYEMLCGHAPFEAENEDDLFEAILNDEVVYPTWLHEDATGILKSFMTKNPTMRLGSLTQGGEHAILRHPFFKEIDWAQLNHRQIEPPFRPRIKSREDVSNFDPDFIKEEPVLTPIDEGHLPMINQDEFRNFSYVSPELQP
Sequence of JNK1alpha1 (P45983 other isoform, or with tags, fused parts or gaps): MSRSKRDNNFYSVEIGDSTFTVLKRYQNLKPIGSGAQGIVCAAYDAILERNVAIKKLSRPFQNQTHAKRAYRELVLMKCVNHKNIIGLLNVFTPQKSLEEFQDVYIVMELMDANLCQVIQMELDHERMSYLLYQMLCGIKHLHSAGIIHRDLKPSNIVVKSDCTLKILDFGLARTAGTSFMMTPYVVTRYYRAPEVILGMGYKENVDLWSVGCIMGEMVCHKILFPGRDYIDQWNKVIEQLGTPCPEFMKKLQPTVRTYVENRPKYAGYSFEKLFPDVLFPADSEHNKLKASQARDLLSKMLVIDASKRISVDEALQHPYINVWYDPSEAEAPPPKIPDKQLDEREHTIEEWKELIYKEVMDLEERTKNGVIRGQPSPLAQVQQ

| Structure (SMILES) | Avg. POC (Plk3) | Avg. POC (MST2) | Avg. POC (IRAK1) | Avg. POC (JNK1alpha1) | Avg. POC (STK33) | Avg. POC (ERK1) | Avg. POC (Tie2) | Avg. POC (Ret) | Avg. POC (TBK1) | Avg. POC (PTK6) | Avg. POC (PKD2) | Avg. POC (MSSK1) | Avg. POC (CAMK1d) | Avg. POC (Abl-P) | Avg. POC (FGFR3) | Avg. POC (TSSK2) | Avg. POC (RIPK2) | Avg. POC (DCAMKL2) | Avg. POC (EphA5) | Avg. POC (MARK1) | other results |
| --- | --- | --- | --- | --- | --- | --- | --- | --- | --- | --- | --- | --- | --- | --- | --- | --- | --- | --- | --- | --- | --- |
| Cc1c(-c2cnn(C)c2)nn(-c2ccccc2)c1NC(=O)N[C@H]1CCCc2ccccc21 [Example 2, (S)-1-(1′,4-dimethyl-1-phenyl-1H,1′H-3,4′-bipyrazol-5-yl)-3-(1,2,3,4-tetrahydronaphthalen-1-yl)urea] | 103 POC | 110.5 POC | 107 POC | 94 POC | 110.5 POC | 120.5 POC | 126 POC | 118.5 POC | 116 POC | 129 POC | 102 POC | 116 POC | 127 POC | 146.5 POC | 113.5 POC | 118.5 POC | 108 POC | 157.5 POC | 119 POC | 103 POC | Avg. POC (FGFR2): 112.5 POC; Avg. POC (DAPK3): 125.5 POC; Avg. POC (PKCeta): 107 POC; Avg. POC (GRK5): 106.5 POC; Avg. POC (CDK6/cyclinD3): 100 POC; Avg. POC (CDK2/cyclinE): 116.5 POC; Avg. POC (TLK2): 100 POC; Avg. POC (AKT1): 130.5 POC; Avg. POC (MELK): 142 POC; Avg. POC (CK1gamma2): 142.5 POC; Avg. POC (NEK3): 105 POC; Avg. POC (GSK3alpha): 123.5 POC; Avg. POC (PAK4): 95 POC; Avg. POC (Ron): 106.5 POC; Avg. POC (Pim-3): 98 POC; Avg. POC (ULK2): 99 POC; Avg. POC (CK1gamma1): 116.5 POC; Avg. POC (EphA2): 129 POC; Avg. POC (MYLK): 100 POC |
| Cc1c(-c2cnn(C)c2)nn(-c2ccccc2)c1NC(=O)NC1CCOc2cc(F)ccc21 (stereo not drawn) [Example 12, 1-(1′,4-dimethyl-1-phenyl-1H,1′H-[3,4′-bipyrazol]-5-yl)-3-(7-fluorochroman-4-yl)urea] | 115 POC | 106.5 POC | 102.5 POC | 109.5 POC | 106.5 POC | 105 POC | 104.5 POC | 85 POC | 103 POC | 125.5 POC | 94 POC | 112.5 POC | 137 POC | 135.5 POC | 109 POC | 139 POC | 99 POC | 169 POC | 118.5 POC | 104 POC | Avg. POC (FGFR2): 114 POC; Avg. POC (DAPK3): 103 POC; Avg. POC (PKCeta): 100 POC; Avg. POC (GRK5): 83.5 POC; Avg. POC (CDK6/cyclinD3): 103 POC; Avg. POC (CDK2/cyclinE): 96.5 POC; Avg. POC (TLK2): 98 POC; Avg. POC (AKT1): 105.5 POC; Avg. POC (MELK): 67 POC; Avg. POC (CK1gamma2): 114.5 POC; Avg. POC (NEK3): 102 POC; Avg. POC (GSK3alpha): 119.5 POC; Avg. POC (PAK4): 103 POC; Avg. POC (Ron): 116.5 POC; Avg. POC (Pim-3): 100.5 POC; Avg. POC (ULK2): 99 POC; Avg. POC (CK1gamma1): 98.5 POC; Avg. POC (EphA2): 113 POC; Avg. POC (MYLK): 99 POC |
| Cc1c(-c2ccc(=O)n(C)c2)nn(-c2ccccc2)c1NC(=O)NC1CN(CC(F)(F)F)Cc2ccccc21 (stereo not drawn) [Example 26, 1-(4-methyl-3-(1-methyl-6-oxo-1,6-dihydropyridin-3-yl)-1-phenyl-1H-pyrazol-5-yl)-3-(2-(2,2,2-trifluoroethyl)-1,2,3,4-tetrahydroisoquinolin-4-yl)urea] | 119 POC | 111 POC | 110.5 POC | 112 POC | 111 POC | 109.5 POC | 106.5 POC | 106.5 POC | 113 POC | 121 POC | 102 POC | 120.5 POC | 97 POC | 131 POC | 101 POC | 128 POC | 98 POC | 135 POC | 106.5 POC | 98.5 POC | Avg. POC (FGFR2): 112 POC; Avg. POC (DAPK3): 103 POC; Avg. POC (PKCeta): 98 POC; Avg. POC (GRK5): 86 POC; Avg. POC (CDK6/cyclinD3): 104.5 POC; Avg. POC (CDK2/cyclinE): 97.5 POC; Avg. POC (TLK2): 97 POC; Avg. POC (AKT1): 100 POC; Avg. POC (MELK): 86 POC; Avg. POC (CK1gamma2): 112.5 POC; Avg. POC (NEK3): 105 POC; Avg. POC (GSK3alpha): 115.5 POC; Avg. POC (PAK4): 100.5 POC; Avg. POC (Ron): 101 POC; Avg. POC (Pim-3): 98 POC; Avg. POC (ULK2): 102 POC; Avg. POC (CK1gamma1): 106.5 POC; Avg. POC (EphA2): 102 POC; Avg. POC (MYLK): 101 POC |
| COCc1ccc2c(c1)C(NC(=O)Nc1c(C)c(-c3cnn(C)c3)nn1-c1ccccc1)COC2 (stereo not drawn) [Example 32, 1-(1′,4-dimethyl-1-phenyl-1H,1′H-[3,4′-bipyrazol]-5-yl)-3-(6-(methoxymethyl)isochroman-4-yl)urea] | 103.5 POC | 111.5 POC | 113.5 POC | 118 POC | 115 POC | 107 POC | 121 POC | 100.5 POC | 108.5 POC | 100 POC | 110.5 POC | 105.5 POC | 114 POC | 124.5 POC | 107 POC | 120.5 POC | 99.5 POC | 146 POC | 104.5 POC | 98.5 POC | Avg. POC (FGFR2): 110.5 POC; Avg. POC (DAPK3): 111 POC; Avg. POC (PKCeta): 111.5 POC; Avg. POC (GRK5): 90 POC; Avg. POC (CDK6/cyclinD3): 108 POC; Avg. POC (CDK2/cyclinE): 106 POC; Avg. POC (TLK2): 92 POC; Avg. POC (AKT1): 92 POC; Avg. POC (MELK): 98 POC; Avg. POC (CK1gamma2): 101.5 POC; Avg. POC (NEK3): 113 POC; Avg. POC (GSK3alpha): 112.5 POC; Avg. POC (PAK4): 98 POC; Avg. POC (Ron): 107 POC; Avg. POC (Pim-3): 112 POC; Avg. POC (ULK2): 103 POC; Avg. POC (CK1gamma1): 111.5 POC; Avg. POC (EphA2): 118 POC; Avg. POC (MYLK): 97.5 POC |
